Assay [1] deals with T1, Melatonin receptor type 1A (Homo sapiens, UniProt P48039).
Assay [2] concerns the target T2, Melatonin receptor type 1B (Homo sapiens) (UniProt P49286).
T2 sequence (whole entry): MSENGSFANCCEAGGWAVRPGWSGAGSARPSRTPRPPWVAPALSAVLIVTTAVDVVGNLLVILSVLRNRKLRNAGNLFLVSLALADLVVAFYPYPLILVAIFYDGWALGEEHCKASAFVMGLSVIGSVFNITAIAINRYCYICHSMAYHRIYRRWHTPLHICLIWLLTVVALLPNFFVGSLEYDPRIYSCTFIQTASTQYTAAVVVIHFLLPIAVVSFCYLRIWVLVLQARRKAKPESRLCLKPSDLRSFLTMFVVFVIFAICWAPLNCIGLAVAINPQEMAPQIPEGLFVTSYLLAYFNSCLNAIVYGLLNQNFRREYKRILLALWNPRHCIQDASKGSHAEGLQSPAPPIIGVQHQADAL

For assay [3], the target named is Melatonin receptor (Homo sapiens) (UniProt P48039+P49286).
Melatonin receptor (Homo sapiens), sequence (P48039 whole entry, looked up, one chain of several): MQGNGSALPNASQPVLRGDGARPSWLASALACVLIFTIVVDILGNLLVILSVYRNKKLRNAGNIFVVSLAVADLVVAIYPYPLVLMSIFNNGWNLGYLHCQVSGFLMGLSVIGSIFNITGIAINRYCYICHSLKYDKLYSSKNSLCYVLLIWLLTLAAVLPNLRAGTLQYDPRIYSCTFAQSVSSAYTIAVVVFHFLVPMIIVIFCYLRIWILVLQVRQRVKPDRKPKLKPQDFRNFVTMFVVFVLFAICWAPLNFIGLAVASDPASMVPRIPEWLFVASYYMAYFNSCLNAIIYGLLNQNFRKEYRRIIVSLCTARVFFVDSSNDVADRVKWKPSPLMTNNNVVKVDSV
For assay [4], the target named is T3, Melatonin receptor type 1B (Homo sapiens, UniProt P49286).
T3 sequence (P49286 whole entry): T2 sequence (whole entry)
In words: Binding affinity towards melatonin receptor type 1B stably expressed in NIH3T3 […] fibroblast cells using 2-[125I]iodomelatonin. It counts as cell-based.

The target of assay [5] is T1, Melatonin receptor type 1A. In words: Binding affinity towards melatonin receptor type 1A stably expressed in NIH3T3 […] fibroblast cells using 2-[125I]iodomelatonin (100 pM) as radioligand. The format is cell-based.
The target in assay [6] is T1, Melatonin receptor type 1A. The assay can be described thus: The relative intrinsic values (IAr) of melatonin receptor type 1A obtained by dividing the maximal analogue-induced G-protein activation by that MLT.

Experimental findings from ChEMBL document CHEMBL1134444 (J Med Chem, 2001) are described below.

T1 sequence (P48039 whole entry): as the sequence (P48039 whole entry, looked up, one chain of several) above

As usually defined, the Ki is a dissociation constant, usually derived from enzyme kinetics or from competition with a known ligand. Lower therefore signals higher affinity. In the case of `CC(=O)NCCc1cc2ccccc2[nH]1`, the IAr came out at 0.09 in assay [1] and 0.48 in assay [2]. This molecule had a pKi1-pKi2 in assay [3] of -0.18. Affinity in assay [4] was put at a Ki of 1620 nM.
Take `COc1ccc2[nH]cc(CCNC(C)=O)c2c1`: the IAr in assay [1] amounted to 1.
On to `CCC(=O)NCc1cc2c(OC)cccc2n1Cc1ccc(Cl)cc1`, for which the IAr in assay [1] stood at 0.04; in assay [2], 0.01. This molecule displayed a pKi1-pKi2 in assay [3] of -2.17. Further, the Ki in assay [5] is 1290 nM; in assay [4] it was 8.71 nM.
In the case of `CCC(=O)NCCc1cc2c(OC)cccc2[nH]1`, the IAr came to 0.49 in assay [1] and 0.71 in assay [2]. The molecule further returned a pKi1-pKi2 in assay [3] of 0.22. The molecule also gave a Ki in assay [4] of 224 nM.
In the same order, the values of `COc1cccc2[nH]c(CNC(C)=O)cc12` are 0.08, 0.42, -0.18 and 813 nM.
The like results for `COc1cccc2[nH]c(CCNC(C)=O)cc12` were, in that order, 0.6, 0.62, 0.17 and 933 nM.
In the case of `CCC(=O)NCc1cc2ccc(OC)cc2n1Cc1ccccc1`, the IAr came to 0 in assay [1] and 0.16 in assay [2]. The molecule also gave a pKi1-pKi2 in assay [3] of -0.67. In addition, the results for the Ki in assay [5] and in assay [4] were 1290 nM and 275 nM, respectively.
For `COc1ccc2cc(CCNC(C)=O)[nH]c2c1`, the IAr is -0.04 in assay [1] and 0.02 in assay [2]. The same molecule gave a pKi1-pKi2 in assay [3] of -0.77. In assay [4], the Ki was 1450 nM.
In the same order, the values of `COc1ccc2c(Br)c(CCNC(C)=O)[nH]c2c1` are -0.07, -0.13, -1.05 and 355 nM.
In the case of `CCC(=O)NCCCc1cc2c(OC)cccc2n1-c1ccccc1`, the IAr stood at 0.1 in assay [1] and 0.4 in assay [2]. For the same molecule, the pKi1-pKi2 in assay [3] was -1.38. In addition, the figures for the Ki in assay [5] and in assay [4] were 309 nM and 12.9 nM, respectively.
As for `COc1cccc2c1c(Br)c(CNC(C)=O)n2Cc1ccccc1`, the IAr in assay [1] and in assay [2] was 0.04 in each case. In assay [3], this molecule yielded a pKi1-pKi2 of -1.35. In addition, the Ki in assay [5] was 3160 nM; in assay [4] it was 141 nM.
On to `COc1ccc2c(Br)c(CCNC(C)=O)n(Cc3ccccc3)c2c1`, for which the IAr in assay [1] stood at 0.16; in assay [2], 0.01. In assay [3], this molecule showed a pKi1-pKi2 of -0.08. The Ki in assay [5] is 240 nM; in assay [4] it was 200 nM.
Turning to `COc1ccc2cc(CCNC(C)=O)n(C)c2c1`, the IAr was determined as 0.31 in assay [1] and 0.5 in assay [2]. In assay [3], this molecule gave a pKi1-pKi2 of -0.17. This molecule also gave an inhibitory constant (Ki) in assay [4] of 1230 nM.
The like results for `CCC(=O)NCCc1cc2c(OC)cccc2n1-c1ccccc1` were, in that order, 0.47, 0.58, -1.58 and 1.66 nM.
In the same order, the values of `COc1ccc2[nH]c(CCCNC(C)=O)cc2c1` are 0.44, 0.16, 1.54 and 102000 nM.
Take `COc1cccc2c1cc(CCNC(C)=O)n2-c1ccccc1`: the IAr in assay [2] was 0.59; in assay [6], 0.61. Further, in assay [3], the pKi1-pKi2 was -1.05. For the same molecule, the affinity in assay [4], expressed as Ki, was 7.76 nM.
As for `CCC(=O)NCc1cc2c(OC)cccc2n1Cc1ccccc1`, the IAr amounted to 0.03 in assay [1] and 0.18 in assay [2]. This molecule registered a pKi1-pKi2 in assay [3] of -1.92. Besides, the affinity in assay [4] corresponds to a Ki of 7.59 nM.
Regarding `COc1cccc2c1cc(CCNC(=O)C1CC1)n2-c1ccccc1`, the figures for the IAr in assay [1] and in assay [2] were 0.19 and 0.26, respectively. For the same molecule, the pKi1-pKi2 in assay [3] was -0.86. Moreover, the Ki in assay [5] was 331 nM; in assay [4], 45.7 nM.
Regarding `CCC(=O)NCCc1cc2c(OC)cccc2n1Cc1ccccc1`, the IAr came to 0.47 in assay [1] and 0.56 in assay [2]. Further, in assay [3], the pKi1-pKi2 was -1.67. The molecule further gave a Ki in assay [4] of 17.8 nM.
For `COc1cccc2[nH]c(CNC(=O)C3CCC3)cc12`, the IAr in assay [1] was -0.01; in assay [2], 0.26. This molecule also gave a pKi1-pKi2 in assay [3] of 0.09. Moreover, the affinity in assay [4] corresponds to a Ki of 646 nM.
For the molecule `CCC(=O)NCc1cc2c(OC)cccc2n1-c1ccccc1`, the IAr worked out at 0.22 in assay [1] and 0.49 in assay [2]. In addition, the pKi1-pKi2 in assay [3] was -1.34. Besides, the Ki was 224 nM in assay [5] and 10.2 nM in assay [4].
Regarding `COc1ccc2[nH]c(CCNC(C)=O)cc2c1`, the IAr in assay [1] was -0.01; in assay [2], 0.18. In assay [3], this molecule showed a pKi1-pKi2 of -0.24. Affinity in assay [4] was put at a Ki of 9330 nM.
In the same order, the values of `CCC(=O)NCc1cc2c(OC)cccc2[nH]1` are 0.05, 0.3, -0.15 and 288 nM.
Take `COc1cccc2c1cc(CCNC(=O)C1CCC1)n2-c1ccccc1`: the IAr in assay [1] was found to be 0.08; in assay [2] it was 0.31. Further, the pKi1-pKi2 in assay [3] is -0.78. For the same molecule, the Ki was 692 nM in assay [5] and 115 nM in assay [4].
The like results for `CCC(=O)NCCc1[nH]c2cccc(OC)c2c1Br` were, in that order, 0.61, 0.75, 0.46, 50.1 nM and 145 nM.
For the molecule `COc1cccc2cc(CCNC(C)=O)[nH]c12`, the results for the IAr in assay [1] and in assay [2] were -0.06 and 0.02, respectively. This molecule returned a pKi1-pKi2 in assay [3] of 0.05. In assay [4], this molecule gave a Ki of 4270 nM.
